Assay results as given in US6156700A, “3-(1,2-Benzisothiazol- and isoxazol-5-yl)-2,4(1H,3H)-pyrimidinedione or thione and 3-(1,2-benzisothiazol- and isoxazol-5-yl)-4(3H)-pyrimidinone or thione herbicidal agents” (American Cyanmid Company, priority 1998, dated 2000).

What was measured:
[1] = tested on: Velvetleaf, Abutilon theophrasti; assay: Preemergence herbicidal evaluation, ABUTH; type: in vivo, Medic.; conditions: 0.2500 kg/ha
Procedure, shortened: (§1)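 Seeds sown in potting soil in cups, then sprayed preemergence with compound in aqueous acetone at about 0.0156 to 0.500 kg per hectare. Greenhouse-grown; rated visually 4–5 weeks after treatment on a 0–9 scale (stand, vigor, malformation, size, chlorosis, appearance) versus untreated control.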

MOOVA Monochoria [2] = assay: Preemergence weed control, flooded paddy (Table III); type: in vivo, Monochoria vaginalis; parameters: scale not given here
Experimental: (§2) Preemergence herbicidal activity under flooded paddy conditions is determined as follows: plant seeds or propagating organs are planted in the top 0.5 cm of silt loam soil in 32 oz. plastic containers with a diameter of 10.5 cm and no drainage holes. Water is added to these containers and maintained at 1.5 to 3 cm above the soil surface for the duration of the experiment. The test compounds are applied as aqueous/acetone mixtures 50/50 v/v pipetted directly into the flood water to give the equivalent of about 0.0313 to 0.500 kg/ha of active ingredient. The treated containers are placed on greenhouse benches and cared for in accordance with conventional greenhouse procedures. Three to four weeks after treatment, the test is terminated and each container is examined and herbicidal effect rated according to the rating system provided in Example 185. The compounds evaluated are reported by compound number given in Example 185.

CYPSE Flatsedge [3] = assay: Postemergence weed control, flooded paddy (Table IV); type: in vivo, Cyperus serotinus; parameters: scale not given here
Procedure, shortened: (§3)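 Containers holding 3 to 5 cm weeds and rice at the 1.5 to 2.5 leaf stage are flooded and kept 1.5 to 3 cm deep. Test material is applied directly into the water at about 0.0313 to 0.500 kg/ha, then plants are held in the greenhouse for three to four weeks before rating.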

[4] = tested on: Barnyardgrass, Echinochloa crus-galli; assay: Preemergence herbicidal evaluation, ECHCG; type: in vivo, (L.) Beau; conditions: 0.2500 kg/ha
Procedure, shortened: as §1

CYPIR Rice Flatsedge = assay: Postemergence weed control, flooded paddy (Table IV); type: in vivo, Cyperus iria; parameters: scale not given here
Procedure, shortened: as §3

CYPSE Flatsedge [5] = assay: Preemergence weed control, flooded paddy (Table III); type: in vivo, Cyperus serotinus; parameters: scale not given here
Experimental: as §2

[6] = tested on: Foxtail, Green, Setaria viridis; assay: Preemergence herbicidal evaluation, SETVI; type: in vivo, (L.) Beau; conditions: 0.2500 kg/ha
Procedure, shortened: as §1

[7] = tested on: Ragweed, Common, Ambrosia artemisifolia; assay: Preemergence herbicidal evaluation, AMBEL; type: in vivo, L.; conditions: 0.2500 kg/ha
Procedure, shortened: as §1

[8] = tested on: Velvetleaf, Abutilon theophrasti; assay: Postemergence herbicidal evaluation, ABUTH; type: in vivo, Medic.; conditions: 0.2500 kg/ha
Procedure, shortened: (§4)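 Postemergence spray on ~2-wk seedlings: ~0.0157–0.500 kg/ha in acetone/water 50/50, 0.5% TWEEN 20, 40 psi. Greenhouse hold 4–5 wk, then 0–9 visual score; repeat tests averaged.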

Soybean, Glycine max = assay: Postemergence herbicidal evaluation, GLXMA; type: in vivo, (L.) Merr.; conditions: 0.2500 kg/ha
Experimental: In the tests, seedling plants are grown in jiffy flats for about two weeks. The test compounds are dispersed in 50/50 acetone/water mixtures containing 0.5% TWEEN®20, a polyoxyethylene sorbitan monolaurate surfactant of Atlas Chemical Industries, in sufficient quantities to provide the equivalent of about 0.0157 kg to 0.500 kg per hectare of active compound when applied to the plants through a spray nozzle operating at 40 psi for a predetermined time. After spraying, the plants are placed on greenhouse benches and are cared for in accordance with conventional greenhouse procedures. From four to five weeks after treatment, the seedling plants are examined and rated according to the rating system set forth below. Where more than one test is involved for a given compound, the data are averaged.
(§5) Results of herbicide evaluation are expressed on a rating scale (0-9). The scale is based upon a visual observation of plant stand, vigor, malformation, size, chlorosis and overall plant appearance as compared with a control.

[9] = tested on: Lambsquarters, Common, Chenopodium album; assay: Preemergence herbicidal evaluation, CHEAL; type: in vivo, L.; conditions: 0.2500 kg/ha
Excerpt: as §5
(§6) The preemergence herbicidal activity of the test compounds of the present invention is exemplified by the following tests in which the seeds of a variety of monocotyledonous and dicotyledonous plants are separately mixed with potting soil and planted on top of approximately one inch of soil in separate pint cups. After planting, the cups are sprayed with the selected aqueous acetone solution containing test compound in sufficient quantity to provide the equivalent of about 0.0156 to 0.500 kg per hectare of test compound per cup. The treated cups are then placed on greenhouse benches, watered and cared for in accordance with conventional greenhouse procedures. From four to five weeks after treatment, the tests are terminated and each cup is examined and rated according to the rating system provided in Example 185.
(§7) The compounds evaluated are reported by compound number given in Example 185.

MOOVA Monochoria [10] = assay: Postemergence weed control, flooded paddy (Table IV); type: in vivo, Monochoria vaginalis; parameters: scale not given here
Procedure, shortened: as §3

Galium, Galium aparine [11] = assay: Preemergence herbicidal evaluation, GALAP; type: in vivo; conditions: 0.2500 kg/ha
Excerpt: as §5, §6, §7

[12] = tested on: Foxtail, Green, Setaria viridis; assay: Postemergence herbicidal evaluation, SETVI; type: in vivo, (L.) Beau; conditions: 0.2500 kg/ha
Procedure, shortened: as §4

[13] = tested on: Morningglory Spp., Ipomoea Spp.; assay: Preemergence herbicidal evaluation, IPOSS; type: in vivo; conditions: 0.2500 kg/ha
Excerpt: as §5, §6, §7

[14] = tested on: Lambsquarters, Common, Chenopodium album; assay: Postemergence herbicidal evaluation, CHEAL; type: in vivo, L.; conditions: 0.2500 kg/ha
Procedure, shortened: as §4

[15] = tested on: SAGPY Arrowhead (Pygmaea); assay: Postemergence weed control, flooded paddy (Table IV); type: in vivo, Sagittaria pygmaea; parameters: scale not given here
Procedure, shortened: as §3

Galium, Galium aparine [16] = assay: Postemergence herbicidal evaluation, GALAP; type: in vivo; conditions: 0.2500 kg/ha
Procedure, shortened: as §4

[17] = tested on: Barnyardgrass, Echinochloa crus-galli; assay: Postemergence herbicidal evaluation, ECHCG; type: in vivo, (L.) Beau; conditions: 0.2500 kg/ha
Procedure, shortened: as §4

[18] = tested on: Rice, Tebonnet, Oryza sativa; assay: Postemergence herbicidal evaluation, ORYSAT; type: in vivo, (L.) Tebonnet; conditions: 0.2500 kg/ha
Procedure, shortened: as §4

[19] = tested on: Soybean, Williams, Glycine max; assay: Postemergence herbicidal evaluation, GLXMAW; type: in vivo, (L.) Merr. cv Williams; conditions: 0.2500 kg/ha
Procedure, shortened: as §4

SMILES | herbicide rating (0-9) [1] | herbicidal effect rating (MOOVA Monochoria [2]; 0.0313 kg/ha) | herbicidal effect rating (MOOVA Monochoria [2]; 0.0625 kg/ha) | herbicidal effect rating (MOOVA Monochoria [2]; 0.1250 kg/ha) | herbicidal effect rating (MOOVA Monochoria [2]; 0.2500 kg/ha) | herbicidal effect rating (MOOVA Monochoria [2]; 0.5000 kg/ha) | herbicidal effect rating (CYPSE Flatsedge [3]; 0.5000 kg/ha) | herbicide rating (0-9) [4] | herbicidal effect rating (CYPIR Rice Flatsedge; 0.1250 kg/ha) | herbicidal effect rating (CYPIR Rice Flatsedge; 0.2500 kg/ha) | herbicidal effect rating (CYPIR Rice Flatsedge; 0.5000 kg/ha) | herbicidal effect rating (CYPSE Flatsedge [5]; 0.0625 kg/ha) | herbicidal effect rating (CYPSE Flatsedge [5]; 0.1250 kg/ha) | herbicidal effect rating (CYPSE Flatsedge [5]; 0.2500 kg/ha) | herbicidal effect rating (CYPSE Flatsedge [5]; 0.5000 kg/ha) | herbicide rating (0-9) [6] | herbicide rating (0-9) [7] | herbicide rating (0-9) [8] | herbicidal effect rating (MOOVA Monochoria [10]; 0.1250 kg/ha) | herbicidal effect rating (MOOVA Monochoria [10]; 0.2500 kg/ha) | other results
Cn1c(C(F)(F)F)cc(=O)n(-c2ccc3snc(-c4ccccc4)c3c2)c1=O [Compound 4, 1-Methyl-3-(3-phenyl-1,2-benzisothiazol-5-yl)-6-(trifluoromethyl)-2,4(1H,3H)-pyrimidinedione] | 9.0 | 9.0 | 9.0 | 9.0 | 9.0 | 9.0 | 9.0 | 9.0 | 9.0 | 9.0 | 9.0 | 2.0 | 9.0 | 9.0 | 9.0 | 9.0 | 9.0 | 9.0 | 9.0 | 9.0 | herbicidal effect rating (CYPSE Flatsedge [3]; 0.1250 kg/ha): 7.0; herbicidal effect rating (CYPSE Flatsedge [3]; 0.2500 kg/ha): 7.0; herbicide rating (0-9) (Soybean, Glycine max): 9.0; herbicide rating (0-9) [9]: 9.0; herbicidal effect rating (MOOVA Monochoria [10]; 0.5000 kg/ha): 9.0; herbicide rating (0-9) (Galium, Galium aparine [11]): 9.0; herbicide rating (0-9) [12]: 9.0; herbicide rating (0-9) [13]: 9.0; herbicide rating (0-9) [14]: 9.0; herbicidal effect rating ([15]; 0.1250 kg/ha): 6.0; herbicidal effect rating ([15]; 0.2500 kg/ha): 9.0; herbicidal effect rating ([15]; 0.5000 kg/ha): 9.0; herbicide rating (0-9) (Galium, Galium aparine [16]): 9.0; herbicide rating (0-9) [17]: 8.0; herbicide rating (0-9) [18]: 3.0
COc1cc(C)ccc1-c1nsc2ccc(-n3c(=O)cc(C(F)(F)F)n(C)c3=O)cc12 [Compound 7, 3-[3-(2-Methoxy-p-tolyl)-1,2-benzisothiazol-5-yl]-1-methyl-6-(trifluoromethyl)-2,4(1H,3H)-pyrimidinedione] | 9.0 | 9.0 | 9.0 | 9.0 | 9.0 | 9.0 | 8.0 | 9.0 | 9.0 | 9.0 | 9.0 | 7.0 | 8.0 | 7.0 | 9.0 | 9.0 | 9.0 | 9.0 | 9.0 | 9.0 | herbicidal effect rating (CYPSE Flatsedge [3]; 0.1250 kg/ha): 9.0; herbicidal effect rating (CYPSE Flatsedge [3]; 0.2500 kg/ha): 9.0; herbicidal effect rating (CYPSE Flatsedge [5]; 0.0313 kg/ha): 7.0; herbicidal effect rating (MOOVA Monochoria [10]; 0.5000 kg/ha): 9.0; herbicide rating (0-9) [12]: 9.0; herbicide rating (0-9) [13]: 9.0; herbicide rating (0-9) [14]: 9.0; herbicidal effect rating ([15]; 0.1250 kg/ha): 4.0; herbicidal effect rating ([15]; 0.2500 kg/ha): 9.0; herbicidal effect rating ([15]; 0.5000 kg/ha): 9.0; herbicide rating (0-9) (Galium, Galium aparine [16]): 8.0; herbicide rating (0-9) [19]: 9.0; herbicide rating (0-9) [17]: 8.0; herbicide rating (0-9) [18]: 6.5
COC(=O)COc1cc(C)c(C)cc1-c1nsc2ccc(-n3c(=O)cc(C(F)(F)F)n(C)c3=O)cc12 [Compound 12, Methyl {{6-{5-[3,6-dihydro-3-methyl-4-(trifluoromethyl)-2,6-dioxo-1(2H)-pyrimidinyl]-1,2-benzisothiazol-3-yl}-3,4-xylyl}oxy}acetate] | 9.0 | 9.0 | 9.0 | 9.0 | 9.0 | 9.0 | 2.0 | 6.0 | 9.0 | 9.0 | 9.0 | 7.0 | 8.0 | 7.0 | 7.0 | 9.0 | 9.0 | 9.0 | 9.0 | 9.0 | herbicidal effect rating (CYPSE Flatsedge [5]; 0.0313 kg/ha): 6.0; herbicidal effect rating (MOOVA Monochoria [10]; 0.5000 kg/ha): 9.0; herbicide rating (0-9) [12]: 9.0; herbicide rating (0-9) [13]: 9.0; herbicide rating (0-9) [14]: 9.0; herbicidal effect rating ([15]; 0.1250 kg/ha): 0.0; herbicidal effect rating ([15]; 0.2500 kg/ha): 4.0; herbicidal effect rating ([15]; 0.5000 kg/ha): 9.0; herbicide rating (0-9) (Galium, Galium aparine [16]): 9.0; herbicide rating (0-9) [19]: 9.0; herbicide rating (0-9) [17]: 9.0; herbicide rating (0-9) [18]: 9.0
CCc1ccc(-c2nsc3ccc(-n4c(=O)cc(C(F)(F)F)n(C)c4=O)cc23)cc1 [Compound 5, 3-[3-(p-Ethylphenyl)-1,2-benzisothiazol-5-yl]-1-methyl-6-(trifluoromethyl)-2,4 (1H,3H)-pyrimidinedione] | 9.0 | 9.0 | 9.0 | 9.0 | 9.0 | 9.0 | 0.0 | 9.0 | 9.0 | 9.0 | 9.0 | 2.0 | 6.0 | 8.0 | 7.0 | 9.0 | 9.0 | 9.0 | 9.0 | 9.0 | herbicidal effect rating (CYPSE Flatsedge [3]; 0.1250 kg/ha): 0.0; herbicidal effect rating (CYPSE Flatsedge [3]; 0.2500 kg/ha): 0.0; herbicidal effect rating (CYPSE Flatsedge [5]; 0.0313 kg/ha): 0.0; herbicide rating (0-9) (Soybean, Glycine max): 7.0; herbicide rating (0-9) [9]: 9.0; herbicidal effect rating (MOOVA Monochoria [10]; 0.5000 kg/ha): 9.0; herbicide rating (0-9) (Galium, Galium aparine [11]): 6.0; herbicide rating (0-9) [12]: 9.0; herbicide rating (0-9) [13]: 9.0; herbicide rating (0-9) [14]: 9.0; herbicidal effect rating ([15]; 0.1250 kg/ha): 4.0; herbicidal effect rating ([15]; 0.2500 kg/ha): 6.0; herbicidal effect rating ([15]; 0.5000 kg/ha): 8.0; herbicide rating (0-9) (Galium, Galium aparine [16]): 9.0; herbicide rating (0-9) [17]: 7.0; herbicide rating (0-9) [18]: 3.0
